In one data set the test system is red blood cells. Put plainly: Red blood cell lysis assay. It counts as cell-based, sheep. As to conditions: 2 h, normalized to max lysis by triton-x. On the procedure: Hemolysis assays were performed with defibrinated sheep's blood (Lampire, Cat #7239001). Blood was washed three times with PBS then resuspended to about 50% hematocrit in PBS. A two-fold dilution series of the compounds in 200 μL PBS with equal DMSO concentration across the series, then red blood cells were added with a final concentration of 2% hematocrit. Cells were incubated at RT for 2 hours in a v-bottom microtiter plate, then plates were spun down and supernatant was transferred to a flat bottom microtiter plate for absorbance measurement at 570 nm. Compounds were tested in technical triplicate in at least two independent assays performed on different days.

A further data set relates to C. albicans SC5314. Put plainly: Rat model of Candida albicans vascular catheter infection. It counts as in vivo. On the procedure:
C. albicans biofilm growth during infection of implanted medical devices was measured using an external jugular-vein, rat-catheter infection model (Nett et al., 2012). Briefly, a 1×10^6 cells/ml inoculum for each strain or strain combination was allowed to grow on an internal jugular catheter placed in a pathogen-free female rat (16-week old, 400 g) for 24 hours. After this period, the catheter volumes were removed and the catheters were flushed with 0.9% NaCl. The biofilms were dislodged by sonication and vortexing. Viable cell counts were determined by dilution plating. Three replicates were performed for each strain.
After a 24 hours biofilm formation phase, the devices were removed, sectioned to expose the intraluminal surface, and processed for SEM imaging. Briefly, one milliliter fixative (4% formaldehyde and 1% glutaraldehyde in PBS) was added to each catheter tube and tubes were fixed at 4° C. overnight. Catheters were then washed with PBS prior to incubation in 1% OsO4 for 30 minutes. Samples were then serially dehydrated in ethanol (30-100%). Critical point drying was used to completely dehydrate the samples prior to palladium-gold coating. Samples were imaged on a SEM LEO 1530, with Adobe Photoshop 2022 (v. 23.2.2) used for image compilation.
One potential approach to managing central venous catheter infections is to treat the lumen of the catheter with an anti-infective solution that is locked within the catheter and not introduced into the patient (Chandra et al., 2018). This strategy is most often applied to catheters infected with bacteria but has been proposed for fungal infections as well (Pappas et al., 2016; Mermel et al., 2009). To test the efficacy of KAPs in this setting, a rat model of C. albicans venous catheter infection was employed (Nett et al., 2023). The catheter was infected with C. albicans SC5314 and, on post-infection day 1, treated with A (8 μg/mL solution within catheter) or vehicle. After 24 hours, the catheter was removed and processed for fungal burden and scanning electron microscopy. […]

The next data set concerns C. auris. Put plainly: Ex vivo porcine skin model of Candida auris colonization. On the procedure: The collection of porcine skin samples was conducted under protocols approved by the University of Wisconsin-Madison Institutional Animal Care and Use Committee in accordance with published National Institutes of Health (NIH) and United States Department of Agriculture (USDA) guidelines. Excised skin was cleaned and shaved as described previously (Johnson et al., 2022). Full-thickness samples were obtained by 12 mm punch and placed in 12-well plates containing 3 mL Dulbecco's Modified Eagle Medium (DMEM) (Lonza, Walkersville, MD, USA) supplemented with 10% fetal bovine serum (FBS) (Atlanta biologicals, Lawrenceville, GA, USA), penicillin (1,000 U/mL), and streptomycin (1 mg/mL) (Corning, Manassas, VA, USA) for 6 hours. Tissues were rinsed in DBPS and moved to semi-solid media (6:4 ratio of 1% agarose (BIO-RAD, Hercules, CA, USA) in DPBS:DMEM with 10% FBS). Paraffin wax was applied around the edge of the skin and 10 μL C. auris suspended in synthetic sweat medium at 10^7 cells/mL was applied. Samples were incubated at 24 hours and compound A (8 μg/mL or 16 μg/mL) in synthetic sweat medium was applied. After 24 hours a sterile swab was used to remove compound from skin surface. Samples were vortexed in DPBS and plated on YPD+chloramphenicol to assess viable burden.

[1] abbreviates: 8 μg/mL solution within catheter, 24 hours.

A value given as a limit tells only on which side of the number the result lay.

`Nc1cc[n+](CC(=O)c2ccc3c(c2)OC(c2ccccc2)(c2ccccc2)O3)cc1.[Cl-]` [Compound A]: the “red blood cell lysis LD50” value in the data set with red blood cells came out at 26.9 µg/mL. Moreover, in the data set on C. albicans SC5314 (setting [1]), the “extent of remaining biofilm (scanning electron microscopy)” value is “dramatic reduction” and the “reduction in fungal burden relative to vehicle-treated catheters” value was more than 1 log10. Also, the “fungal burden of the catheter” value with C. albicans SC5314 (8 μg/mL, 24 hr) is on record as “significantly reduced”. Further, in the data set with C. auris (8 μg/mL, 24 hours after a single treatment), the “reduction of fungal burden of colonized porcine skin” value is recorded as “about 1 log10”. Besides, in the data set on C. auris (16 μg/mL versus 8 μg/mL, 24 hours), the “fungal burden of colonized porcine skin” value is “not reduced further”. In the data set on C. auris (8 or 16 μg/mL, 24 hours), the “reduction of C. auris colonization of skin” value is reported as “about 1 log10 CFU”.

Source of the values: patent publication US20260274828A1, “BROAD SPECTRUM ANTIFUNGAL KETO-ALKYL-PYRIDINIUM COMPOUNDS” (priority 2023, published 2026).
